Common to all, as to assay type: cell-based
The subject of series [1] is P. aurigenosa clinical strains. The experiment in a line: Antibacterial susceptibility studies (MIC50 and MIC90), clinical strains, CLSI guidelines.
The subject of series [2] is A. baumannii clinical strains. The series is described as above. The conditions noted are these: for Minimum (MIC): in µg/mL.
Series [3] concerns A. baumannii ATCC19606. The experiment in a line: Antibacterial susceptibility study, reference strain, CLSI guidelines.
In series [4] the target is human ether a go-go related gene (hERG) K+ channel (Homo sapiens (Human), UniProt Q12809). The experiment in a line: hERG inhibition assay, QPatch HTX automated electrophysiology. To be noted: CHO cell line stably expressing hERG, whole-cell patch clamp, maximum test concentration 300 μM. As for the experimental part: The compounds were tested for inhibition of the human ether a go-go related gene (hERG) K+ channel using QPatch HTX automated electrophysiology. […] Compounds were solubilised to 100 mM in DMSO before dilution in HBPS to 300 μM. […] Electrophysiological recordings were made from a Chinese Hamster Ovary cell line stably expressing the full-length hERG potassium channel. Single cell ionic currents were measured in whole-cell patch clamp configuration at room temperature (21-23° C.) using the QPatch HTX platform (Sophion). Intracellular solution contained (mM): 120 KF, 20 KCl, 10 EGTA, 10 HEPES and was buffered to pH 7.3. […] Cells were clamped at a holding potential of −80 mV. Cells were stepped to +20 mV for 2 s then −40 mV for 3s before returning to the holding potential. This sweep was repeated 10 times at 10 s intervals. hERG currents were measured from the tail step and referenced to the holding current. Compounds were then incubated for 2 minutes prior to a second measurement of ion channel current using an identical pulse train.
Sequence of human ether a go-go related gene (hERG) K+ channel (Q12809 whole entry): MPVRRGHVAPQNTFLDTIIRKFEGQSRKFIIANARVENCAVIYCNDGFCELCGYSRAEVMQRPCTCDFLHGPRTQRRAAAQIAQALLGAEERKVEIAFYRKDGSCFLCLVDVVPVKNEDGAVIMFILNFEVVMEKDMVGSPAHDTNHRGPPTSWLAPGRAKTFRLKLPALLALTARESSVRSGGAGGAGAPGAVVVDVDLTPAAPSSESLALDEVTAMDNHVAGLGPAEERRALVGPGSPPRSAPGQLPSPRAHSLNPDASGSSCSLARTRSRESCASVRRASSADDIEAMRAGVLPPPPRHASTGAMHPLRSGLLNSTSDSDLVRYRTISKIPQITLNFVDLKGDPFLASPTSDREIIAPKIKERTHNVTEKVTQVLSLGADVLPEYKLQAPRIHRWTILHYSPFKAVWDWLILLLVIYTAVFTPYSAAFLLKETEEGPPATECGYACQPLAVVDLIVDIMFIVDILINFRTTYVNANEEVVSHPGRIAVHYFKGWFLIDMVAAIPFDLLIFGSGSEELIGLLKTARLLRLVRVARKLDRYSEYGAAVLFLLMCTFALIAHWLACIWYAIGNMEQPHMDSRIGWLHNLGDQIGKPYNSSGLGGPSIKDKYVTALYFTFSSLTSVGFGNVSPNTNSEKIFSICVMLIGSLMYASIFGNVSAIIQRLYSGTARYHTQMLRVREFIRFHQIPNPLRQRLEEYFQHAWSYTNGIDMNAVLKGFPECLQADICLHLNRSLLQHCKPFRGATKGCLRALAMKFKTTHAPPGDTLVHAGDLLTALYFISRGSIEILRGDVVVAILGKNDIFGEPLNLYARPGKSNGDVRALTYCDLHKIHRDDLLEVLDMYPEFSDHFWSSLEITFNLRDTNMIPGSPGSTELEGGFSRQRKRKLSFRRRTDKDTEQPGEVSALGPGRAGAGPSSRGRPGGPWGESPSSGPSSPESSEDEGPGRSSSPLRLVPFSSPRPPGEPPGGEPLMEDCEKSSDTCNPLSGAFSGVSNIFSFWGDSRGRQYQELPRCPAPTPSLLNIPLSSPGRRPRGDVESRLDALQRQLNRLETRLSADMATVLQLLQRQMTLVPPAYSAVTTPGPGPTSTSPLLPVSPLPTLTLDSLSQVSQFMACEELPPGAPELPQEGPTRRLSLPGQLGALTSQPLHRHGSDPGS

Series [5] concerns Enterococcus faecalis ATCC 29212. Nature of the series: Minimum Inhibitory Concentration (MIC) in LB media. The conditions noted are these: ATCC29212, read-out: Minimum Inhibitory Concentration E. faecalis ATCC 29212. The method, then: (§1) Biological Activity (Antibacterial activity): The compounds of Formula (I) are of interest due to their potent antibacterial effects. […] The medium sterility is checked by incubating at 37° C. for a period of 48 h. Bacterial cultures that are stored as glycerol stocks at -80° C. are sub cultured on LB agar plates to obtain isolated colonies. A single colony of each strain is cultured in LB broth. The cultures are incubated at 37° C., 200 rpm till they reach an optical density (OD at 600 nm) of 0.8 to 1. […] Test compounds are dissolved in dimethyl sulfoxide (DMSO) to a stock concentration of 4 mg/mi. A twofold dilution series of this DMSO stock is prepared in a 96 well V bottom microtitre plate from rows A to H. A 3 μL volume of these dilutions are transferred to a 96-well flat bottom microtitre assay plate. Controls to monitor the effects of DMSO and media sterility are included. Each well is inoculated with 150 μL of the above diluted culture. The plates are incubated at 37° C. overnight in a humidified incubator. The following morning, the plates are read using a Spectrophotometer at 600 nm wavelength.

Series [6] concerns Klebsiella pneumoniae ATCC 13883. The experiment in a line: Minimum Inhibitory Concentration (MIC) in LB media. To be noted: ATCC13883, read-out: Minimum Inhibitory Concentration K. pneumoniae ATCC 13883. As for the experimental part: as §1
Series [7] deals with Acinetobacter baumannii ATCC 19606. The experiment in a line: Minimum Inhibitory Concentration (MIC) in LB media. To be noted: ATCC19606. The method, then: as §1
The subject of series [8] is Staphylococcus aureus ATCC 29213. Nature of the series: Minimum Inhibitory Concentration (MIC) in LB media. To be noted: ATCC29213, read-out: Minimum Inhibitory Concentration S. aureus ATCC 29213. The method, then:
as §1

In series [9] the test system is Escherichia coli ATCC 25922. Nature of the series: Minimum Inhibitory Concentration (MIC) in LB media. The conditions noted are these: ATCC25922, read-out: Minimum Inhibitory Concentration E. coli ATCC 25922. The method, then: as §1
Series [10] deals with Pseudomonas aeruginosa ATCC 27853. Nature of the series: Minimum Inhibitory Concentration (MIC) in LB media. To be noted: ATCC27853, read-out: Minimum Inhibitory Concentration P. aurigenosa ATCC 27853. The method, then:
as §1

In series [11] the test system is P. aurigenosa ATCC27853. The experiment in a line: Antibacterial susceptibility study, reference strain, CLSI guidelines.
Series [12] deals with E. coli ATCC25922. The description is as above.
Series [13] deals with K. pneumoniae clinical strains. Nature of the series: Antibacterial susceptibility studies (MIC50 and MIC90), clinical strains, CLSI guidelines.
Series [14] deals with E. cloacae clinical strains. The series is described as above.
Series [15] has as its system K. pneumoniae ATCC13883. The experiment in a line: Antibacterial susceptibility study, reference strain, CLSI guidelines.
In series [16] the test system is E. coli clinical strains. Nature of the series: Antibacterial susceptibility studies (MIC50 and MIC90), clinical strains, CLSI guidelines.
Where [17] appears, read: Acinetobacter baumannii, read-out: MIC50.
The mark [18] stands for this setting: Acinetobacter baumannii, read-out: MIC90.
Where [19] appears, read: Klebsiella pneumoniae, read-out: MIC50.
[20] abbreviates: Klebsiella pneumoniae, read-out: MIC90.
[21] abbreviates: Enterobacter cloacae, read-out: MIC50.
Where [22] appears, read: Enterobacter cloacae, read-out: MIC90.
Where [23] appears, read: Escherichia coli, read-out: MIC50.
The mark [24] stands for this setting: Escherichia coli, read-out: MIC90.

The structures appear in SMILES notation. Converted amounts (≈) assume the structure as drawn. Like-named read-outs stand apart in the source and are kept apart here.

As to `Cn1c(=O)cnc2ccc(OCCNC[C@H]3CN(c4cnc5c(n4)NC(=O)CO5)C(=O)O3)nc21` [Compound 7, (S)-6-(5-(((2-((4-methyl-3-oxo-3,4-dihydropyrido[2,3-b]pyrazin-6-yl)oxy)ethyl)amino)methyl)-2-oxooxazolidin-3-yl)-2H-pyrazino[3,2-b][1,4]oxazin-3(4H)-one], the Minimum (MIC) in series [1] was found to be 0.06 µg/mL; in series [2], 0.06; in [13], 0.125 µg/mL; in [14], 0.06 µg/mL; in series [16] it was 0.03 µg/mL. Moreover, the MIC50 in series [1] (read-out: MIC50) was 0.5 µg/mL (≈ 1.07 µM); in series [2] (setting [17]) it was 0.5 µg/mL (≈ 1.07 µM); in [13] (setting [19]), 1 µg/mL (≈ 2.13 µM); in [14] (setting [21]), 0.5 µg/mL (≈ 1.07 µM); in series [16] (setting [23]), 0.25 µg/mL (≈ 0.534 µM). Besides, the MIC90 in [1] (read-out: MIC90) was determined as 2 µg/mL (≈ 4.27 µM); in series [2] (setting [18]), 0.5 µg/mL (≈ 1.07 µM); in series [13] (setting [20]) it was 4 µg/mL (≈ 8.54 µM); in series [14] (setting [22]), 2 µg/mL (≈ 4.27 µM); in series [16] (setting [24]), 0.5 µg/mL (≈ 1.07 µM). Also, in series [3], the ATCC19606 (MIC) stood at 0.25 µg/mL. Besides, in series [4], the IC50 was above 300 µM. Further, the MIC in series [5] worked out at 0.25 µg/mL (≈ 0.534 µM); in series [6], 0.13 µg/mL (≈ 0.278 µM); in [7], 0.25 µg/mL (≈ 0.534 µM); in series [8], 0.06 µg/mL (≈ 0.128 µM); in series [9], 0.06 µg/mL (≈ 0.128 µM); in series [10] it was 1 µg/mL (≈ 2.13 µM). For the same molecule, the ATCC27853 (MIC) in [11] turned out to be 1 µg/mL. This molecule registered an ATCC25922 (MIC) in series [12] of 0.06 µg/mL. This molecule displayed an ATCC13883 (MIC) in series [15] of 0.13 µg/mL.

For `C[C@@H](O)[C@H]1C(=O)N2C(C(=O)O)=C(S[C@@H]3CN[C@H](C(=O)N(C)C)C3)[C@H](C)[C@H]12` [Meropenem, reference compound], the MIC50 in series [1] turned out to be 2 µg/mL (≈ 5.22 µM); in series [2], 8 µg/mL (≈ 20.9 µM); in series [13], 1 µg/mL (≈ 2.61 µM); in series [14], 0.25 µg/mL (≈ 0.652 µM); in [16], 0.06 µg/mL (≈ 0.156 µM). Also, the MIC90 was determined as 8 µg/mL (≈ 20.9 µM) in series [1]; 32 µg/mL (≈ 83.4 µM) in series [2]; 16 µg/mL (≈ 41.7 µM) in [13]; 16 µg/mL (≈ 41.7 µM) in [14]; 4 µg/mL (≈ 10.4 µM) in series [16]. In addition, the Minimum (MIC) in series [1] was 0.03 µg/mL; in series [2], 0.03125; in series [13], 0.03 µg/mL; in series [14], 0.06 µg/mL; in series [16], 0.03 µg/mL. The molecule also came in with an ATCC19606 (MIC) in series [3] of 0.5 µg/mL. In series [11], this molecule registered an ATCC27853 (MIC) of 0.5 µg/mL. Moreover, the ATCC25922 (MIC) in [12] was 0.06 µg/mL. Moreover, the ATCC13883 (MIC) in series [15] was 0.06 µg/mL.

Turning to `Cn1c(=O)ccc2ncc(OCCNC[C@H]3CN(c4cnc5c(n4)NC(=O)CS5)C(=O)O3)nc21` [Compound 14, (S)-5-(((2-((5-Methyl-6-oxo-5,6-dihydropyrido[2,3-b]pyrazin-3-yl)oxy)ethyl)amino)methyl)-3-(3-oxo-3,4-dihydro-2H-pyrazino[2,3-b][1,4]thiazin-6-yl)oxazolidin-2-one], the Minimum (MIC) in [1] was 0.06 µg/mL; in series [2], 0.03; in [13], 0.03 µg/mL; in [14] it was 0.03 µg/mL; in series [16] it was 0.03 µg/mL. The MIC50 in [1] (read-out: MIC50) turned out to be 0.5 µg/mL (≈ 1.03 µM); in [2] (setting [17]), 0.25 µg/mL (≈ 0.516 µM); in [13] (setting [19]), 0.25 µg/mL (≈ 0.516 µM); in [14] (setting [21]), 0.25 µg/mL (≈ 0.516 µM); in series [16] (setting [23]) it was 0.06 µg/mL (≈ 0.124 µM). Also, the MIC90 in series [1] (read-out: MIC90) is 1 µg/mL (≈ 2.06 µM); in series [2] (setting [18]), 0.5 µg/mL (≈ 1.03 µM); in [13] (setting [20]), 0.5 µg/mL (≈ 1.03 µM); in series [14] (setting [22]), 0.5 µg/mL (≈ 1.03 µM); in [16] (setting [24]), 0.25 µg/mL (≈ 0.516 µM). For the same molecule, the ATCC19606 (MIC) in [3] is 0.03 µg/mL. In series [4], this molecule returned an IC50 above 150 µM. Also, the MIC in [5] is 0.03 µg/mL (≈ 0.0619 µM); in series [6] it was 0.03 µg/mL (≈ 0.0619 µM); in series [7], 0.03 µg/mL (≈ 0.0619 µM); in series [8] it was at most 0.03 µg/mL; in series [9], 0.03 µg/mL (≈ 0.0619 µM); in series [10], 0.5 µg/mL (≈ 1.03 µM). In addition, in series [11], the ATCC27853 (MIC) is 0.5 µg/mL. For the same molecule, the ATCC25922 (MIC) in [12] turned out to be 0.03 µg/mL. In [15], this molecule gave an ATCC13883 (MIC) of 0.03 µg/mL.
